Legend:
[1] = background description; cited from earlier work
[2] = background description; cited from earlier work; remark: listed apart in the source
[3] = co-micronized with sugar alcohols, from entacapone, levodopa, carbidopa formulation vs not co-micronized

Change in percent drug release of entacapone [3] | Structure (SMILES) | Solubility in water [1] | Biopharmaceutics Classification system class [2]
– | C[C@@](Cc1ccc(O)c(O)c1)(NN)C(=O)O [Carbidopa, (−)-L-(α-hydrazino-(α-methyl-β-(3,4-dihydroxybenzene)propanoic acid monohydrate] | slightly soluble | –
significant increase | CCN(CC)C(=O)/C(C#N)=C/c1cc(O)c(O)c([N+](=O)[O-])c1 [Entacapone, (E)-2-cyano-3-(3,4-dihydroxy-5-nitrophenyl)-N,N-diethyl-2-propenamide] | – | class IV
– | N[C@@H](Cc1ccc(O)c(O)c1)C(=O)O [Levodopa, (−)-L-α-amino-β-(3,4-dihydroxybenzene) propanoic acid] | slightly soluble | –

— patent US9089485B2, “Pharmaceutical compositions of entacapone, levodopa and carbidopa with improved bioavailability” (Wockhardt Ltd., priority 2008, dated 2015)
